Read-outs that look alike come from different tables or passages of the source. Numbered stars: 1 amine (or outer) side, 2 acyl side, 3 side chain; on linkers, the order of the positions; unused ones are H or OH. Bridge positions count the residues as written; N and C are the ends. Square brackets hold non-standard residues; d marks the D form. Peptide text beside a SMILES is read from it. * marks the point of attachment. Tridecanoyl(12-Me) = CC(C)CCCCCCCCCCC(=O)*; X1 = NC(=O)CC(O)C(N[*:1])C(=O)[*:2]; NMeF = CN[CH](Cc1ccccc1)C(=O)O; NMeN = CN[CH](CC(N)=O)C(=O)O; X2 = CCC(C)CCCCCCCCCCC(=O)*
Tests used:
Type in all cases: cell-based
Mycosphaerella arachidis = assay: Liquid culture, Mycosphaerella arachidis (Cercospora arachidicola), early leaf spot, 4-5 days; conditions: Mycosphaerella arachidis, read-out: % reduction fungal growth
Procedure: Mycelia fragments or conidia suspensions of a fungus, prepared either freshly from liquid cultures of the fungus or from cryogenic storage, were directly mixed into nutrient broth.
A stock solution for compound of Formula I(a) and Formula I(b) was produced in DMSO (max. 10 mg/ml), which was diluted with water plus 0.025% Tween®20 to produce a 10× concentrated sample and 10 μl of this solution was pipetted into a microtiter plate (96-well format). The nutrient broth containing the fungal spores/mycelia fragments was then added to give an end concentration of the tested compound. The test plates were incubated in the dark at 24 °C and 96% rh. The inhibition of fungal growth was determined photometrically after 2-7 days, depending on the pathosystem, and percent antifungal activity relative to the untreated check was calculated.
The effect of the test compound (Formula I(a), I(b) and Lipopeptin A) was tested against the following fungi under the conditions as outlined above and specifically herein below:
Mycosphaerella arachidis (Cercospora arachidicola)/liquid culture (early leaf spot) Conidia of the fungus from cryogenic storage were directly mixed into nutrient broth (PDB potato dextrose broth). The inhibition of growth was determined photometrically 4-5 days after application.

Botrytis cinerea = assay: Liquid culture 96-well mixture assay with malonomicin, Botrytis cinerea, 72 hrs; conditions: line H malonomicin alone, concentrations in Table 8
Procedure: (§1) A stock solution for compound of Formula I(a) was produced in DMSO (max. 10 mg/ml). Malonomicin was produced according to Law et al, 2018 (Nature Catalys is |VOL 1|DECEMBER 2018|977-984). A stock solution of malonomicin was produced in water plus 0.025% Tween® 20.
(§2) Assays to test efficacy of mixtures of the lipopeptide compound of Formula I(a) in combination with malonomicin on the control of fungal pathogens in a liquid culture assay were designed for a 96well plate as outlined in table 1:
(§3) The 96 well plate design allows to compare disease control of the mixture with disease control of the respective single compound at the same rate.
(§4) A master plate with 10× concentrated solution of the compound stock solutions diluted in water plus 0.025% Tween® 20 was prepared. The concentration of DMSO (from the stock of compound of Formula (a)) and Tween® 20 was kept constant in all cells of the master plate. 10 μl was transferred from the master plate to a 96well test plate. The nutrient broth containing the fungal spores/mycelia fragments was then added to the test plate to give an end concentration of 1× for the tested compounds (as outlined in Table 8). The test plates were incubated in the dark at 24 °C and 96% rh. The inhibition of fungal growth was determined photometrically after ca 3 days, and percent fungal growth reduction relative to the untreated check was calculated.
Botrytis cinerea (EPPO Code: BOTRCI)
Conidia of the fungus from cryogenic storage were directly mixed into nutrient broth (Vogel's minimal media).

Cercospora arachidicola = assay: Liquid culture 96-well mixture assay with malonomicin, Cercospora arachidicola, 5-6 days; conditions: line H malonomicin alone, concentrations in Table 8
Procedure: as §1, §2, §3
as §4, with “The inhibition of fungal growth was determined photometrically after ca 3 days, and percent fungal growth reduction relative to the untreated check was calculated.” left out
Cercospora arachidicola (EPPO Code: MYCOAR)
(§5) Conidia of the fungus from cryogenic storage were directly mixed into nutrient broth (PDB: potato dextrose broth).

Microdochium nivale = assay: Liquid culture 96-well mixture assay with malonomicin, Microdochium nivale, 72 hrs; conditions: read-out: control of fungal growth (% reduction)
Procedure: as §1, §2, §3, §4
Microdochium nivale (EPPO Code: MONGNI)
as §5

[1] = plate column (2), highest malonomicin concentration, lines A-G with compound of Formula I(a) dilution series
[2] = plate column (3) of malonomicin dilution series, lines A-G with compound of Formula I(a)
[3] = plate column (4) of malonomicin dilution series, lines A-G with compound of Formula I(a)
[4] = plate column (5) of malonomicin dilution series, lines A-G with compound of Formula I(a)
[5] = plate column (6) of malonomicin dilution series, lines A-G with compound of Formula I(a)
[6] = plate column (7) of malonomicin dilution series, lines A-G with compound of Formula I(a)
[7] = plate column (8) of malonomicin dilution series, lines A-G with compound of Formula I(a)
[8] = plate column (9) of malonomicin dilution series, lines A-G with compound of Formula I(a)
[9] = plate column (10) of malonomicin dilution series, lines A-G with compound of Formula I(a)
[10] = plate column (11), lowest malonomicin concentration, lines A-G with compound of Formula I(a)

Molecule `CCC(C)CCCCCCCCCCC(=O)NC1C(=O)NC(CC(=O)O)C(=O)NC(C(O)CC(N)=O)C(=O)NC(CO)C(=O)N(C)C(CC(N)=O)C(=O)N(C)C(Cc2ccccc2)C(=O)NC(CCC(N)=O)C(=O)NC(CCC(=O)O)C(=O)OC1C` (stereo not shown) [Formula I(b)] (X2-TD[X1]S[NMeN][NMeF]QE; ester 1-C; configuration not given here) has an inhibition of growth at 0.41 ppm (Mycosphaerella arachidis; Table 2) of 0%, an inhibition of growth at 1.2 ppm (Mycosphaerella arachidis; Table 2) of 0% and an inhibition of growth at 3.7 ppm (Mycosphaerella arachidis; Table 2) of 0%. The inhibition of growth at 11 ppm (Mycosphaerella arachidis; Table 2) was 90%, the inhibition of growth at 33 ppm (Mycosphaerella arachidis; Table 2) was 100% and the inhibition of growth at 100 ppm (Mycosphaerella arachidis; Table 2) was 100%. The inhibition of growth at 0.41 ppm (Mycosphaerella arachidis; Table 3) was 0%, the inhibition of growth at 1.2 ppm (Mycosphaerella arachidis; Table 3) was 0% and the inhibition of growth at 3.7 ppm (Mycosphaerella arachidis; Table 3) was 0%. It also gave an inhibition of growth at 11 ppm (Mycosphaerella arachidis; Table 3) of 100%, an inhibition of growth at 33 ppm (Mycosphaerella arachidis; Table 3) of 100% and an inhibition of growth at 100 ppm (Mycosphaerella arachidis; Table 3) of 100%.
In the case of `NC[C@@H]1NC(=O)C(C(=O)CC(NC(=O)[C@@H](N)CO)(C(=O)O)C(=O)O)=C1O` [malonomicin, {[(2S)-2-amino-3-hydroxypropanoyl]amino}{2-[(5S)-5-(aminomethyl)-4-hydroxy-2-oxo-2,5-dihydro-1H-pyrrol-3-yl]-2-oxoethyl}malonic acid], the “control of fungal growth (% reduction of growth in the test well as compared to untreated check)” value (Botrytis cinerea; [1]) is reported as 70%, the “control of fungal growth (% reduction of growth in the test well as compared to untreated check)” value (Botrytis cinerea; [2]) is reported as 70% and the “control of fungal growth (% reduction of growth in the test well as compared to untreated check)” value (Botrytis cinerea; [3]) is reported as 70%. For the same molecule, the “control of fungal growth (% reduction of growth in the test well as compared to untreated check)” value (Botrytis cinerea; [4]) was 70%, the “control of fungal growth (% reduction of growth in the test well as compared to untreated check)” value (Botrytis cinerea; [5]) was 70% and the “control of fungal growth (% reduction of growth in the test well as compared to untreated check)” value (Botrytis cinerea; [6]) was 20%. For the same molecule, the “control of fungal growth (% reduction of growth in the test well as compared to untreated check)” value (Botrytis cinerea; [7]) was 0%, the “control of fungal growth (% reduction of growth in the test well as compared to untreated check)” value (Botrytis cinerea; [8]) was 0% and the “control of fungal growth (% reduction of growth in the test well as compared to untreated check)” value (Botrytis cinerea; [9]) was 0%. For the same molecule, the “control of fungal growth (% reduction of growth in the test well as compared to untreated check)” value (Botrytis cinerea; [10]) was 0%, the “control of fungal growth (% reduction of growth in the test well as compared to untreated check)” value (Cercospora arachidicola; [1]) was 100% and the “control of fungal growth (% reduction of growth in the test well as compared to untreated check)” value (Cercospora arachidicola; [2]) was 90%. For the same molecule, the “control of fungal growth (% reduction of growth in the test well as compared to untreated check)” value (Cercospora arachidicola; [3]) was 70%, the “control of fungal growth (% reduction of growth in the test well as compared to untreated check)” value (Cercospora arachidicola; [4]) was 70% and the “control of fungal growth (% reduction of growth in the test well as compared to untreated check)” value (Cercospora arachidicola; [5]) was 50%. For the same molecule, the “control of fungal growth (% reduction of growth in the test well as compared to untreated check)” value (Cercospora arachidicola; [6]) was 50%, the “control of fungal growth (% reduction of growth in the test well as compared to untreated check)” value (Cercospora arachidicola; [7]) was 20% and the “control of fungal growth (% reduction of growth in the test well as compared to untreated check)” value (Cercospora arachidicola; [8]) was 20%. For the same molecule, the “control of fungal growth (% reduction of growth in the test well as compared to untreated check)” value (Cercospora arachidicola; [9]) was 0%, the “control of fungal growth (% reduction of growth in the test well as compared to untreated check)” value (Cercospora arachidicola; [10]) was 0% and the inhibition of growth at 1 ppm (Microdochium nivale; malonomicin 1.00 ppm) was 20%. For the same molecule, the inhibition of growth at 3 ppm (Microdochium nivale; malonomicin 3.00 ppm) was 20%, the inhibition of growth at 7.81 ppm (Microdochium nivale; malonomicin 7.81 ppm) was 20% and the inhibition of growth at 15.63 ppm (Microdochium nivale; malonomicin 15.63 ppm) was 20%. The inhibition of growth at 31.25 ppm (Microdochium nivale; malonomicin 31.25 ppm) was 20%, the inhibition of growth at 62.5 ppm (Microdochium nivale; malonomicin 62.5 ppm) was 50% and the inhibition of growth at 125 ppm (Microdochium nivale; malonomicin 125 ppm) was 90%. It also gave an inhibition of growth at 250 ppm (Microdochium nivale; malonomicin 250 ppm) of 100%, an inhibition of growth at 500 ppm (Microdochium nivale; malonomicin 500 ppm) of 100% and an inhibition of growth at 1000 ppm (Microdochium nivale; malonomicin 1000 ppm) of 100%.
Molecule `CC(C)CCCCCCCCCCC(=O)NC1C(=O)NC(CC(=O)O)C(=O)NC(C(O)CC(N)=O)C(=O)NC(CO)C(=O)N(C)C(CC(N)=O)C(=O)N(C)C(Cc2ccccc2)C(=O)NC(CCC(N)=O)C(=O)NC(CCC(=O)O)C(=O)OC1C` (stereo not shown) [Formula I(a)] ({Tridecanoyl(12-Me)}-TD[X1]S[NMeN][NMeF]QE; ester 1-C; configuration not given here) has an inhibition of growth at 0.41 ppm (Mycosphaerella arachidis; Table 2) of 0%, an inhibition of growth at 1.2 ppm (Mycosphaerella arachidis; Table 2) of 0% and an inhibition of growth at 3.7 ppm (Mycosphaerella arachidis; Table 2) of 100%. For the same molecule, the inhibition of growth at 11 ppm (Mycosphaerella arachidis; Table 2) was 100%, the inhibition of growth at 33 ppm (Mycosphaerella arachidis; Table 2) was 100% and the inhibition of growth at 100 ppm (Mycosphaerella arachidis; Table 2) was 100%. It also gave an inhibition of growth at 0.41 ppm (Mycosphaerella arachidis; Table 3) of 0%, an inhibition of growth at 1.2 ppm (Mycosphaerella arachidis; Table 3) of 0% and an inhibition of growth at 3.7 ppm (Mycosphaerella arachidis; Table 3) of 0%. The inhibition of growth at 11 ppm (Mycosphaerella arachidis; Table 3) was 70%, the inhibition of growth at 33 ppm (Mycosphaerella arachidis; Table 3) was 100% and the inhibition of growth at 100 ppm (Mycosphaerella arachidis; Table 3) was 100%. It also gave an inhibition of growth at 1.56 µg/mL (Microdochium nivale; I(a) 1.56 ppm) of 0%, an inhibition of growth at 3.125 µg/mL (Microdochium nivale; I(a) 3.125 ppm) of 0% and an inhibition of growth at 6.25 µg/mL (Microdochium nivale; I(a) 6.25 ppm) of 0%. It also gave an inhibition of growth at 12.5 µg/mL (Microdochium nivale; I(a) 12.5 ppm) of 0%, an inhibition of growth at 25 µg/mL (Microdochium nivale; I(a) 25 ppm) of 0% and an inhibition of growth at 50 µg/mL (Microdochium nivale; I(a) 50 ppm) of 0%. For the same molecule, the inhibition of growth at 100 µg/mL (Microdochium nivale; I(a) 100 ppm) was 0%.

Source: patent publication US20260347403A1, “FUNGICIDAL COMPOUND” (priority 2022, published 2026)
